# Experimental data as given in PMC7955893 (Journal of medicinal chemistry, 2019).
# What was measured:
# [1] = system: MNAM levels in U2OS cells; test: MNAM measurement in U2OS cells by LC-MS/MS; assay type: cell-based, human; details: 24 h incubation
# Caco-2 = test: A-B permeability testing; details: Caco-2, pH 6.5/7.4
# U2OS cells = test: CellTiter-Glo luminescent cell viability; assay type: cell-based, human; details: 48 h, 100 μM dose
# NNMT [2] = target: T1, NNMT (Homo sapiens, UniProt P40261); test: Cellular thermal shift assay; assay type: binding; details: K562 cell lysate; various concentrations; heated at 57 °C
# T1 sequence (P40261 1-264): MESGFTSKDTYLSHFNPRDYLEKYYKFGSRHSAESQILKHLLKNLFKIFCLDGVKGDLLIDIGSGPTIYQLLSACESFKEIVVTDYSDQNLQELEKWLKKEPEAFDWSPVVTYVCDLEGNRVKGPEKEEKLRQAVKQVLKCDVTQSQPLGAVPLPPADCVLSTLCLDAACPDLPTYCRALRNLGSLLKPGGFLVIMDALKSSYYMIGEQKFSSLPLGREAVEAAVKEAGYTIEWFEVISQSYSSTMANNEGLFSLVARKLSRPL
# NNMT [3] = target: T1, NNMT; test: Fluorescence-based continuous NNMT inhibition assay; assay type: biochemical; details: for NNMT inhibition (in words): qualitative SAR statement
smiles,measurement,setting,value
"NC(=O)c1cccc(C#C[C@@H](CC[C@H](N)C(=O)O)C[C@H]2O[C@@H](n3cnc4c(N)ncnc43)[C@H](O)[C@@H]2O)c1 [NS1, (2S,5S)-2-amino-5-(((2R,3S,4R,5R)-5-(6-amino-9H-purin-9-yl)-3,4-dihydroxytetrahydrofuran-2-yl)methyl)-7-(3-carbamoylphenyl)hept-6-ynoic acid]",ability to decrease MNAM levels in U2OS cells (in words),[1],the effects were modest
same,A-B permeability (in words),Caco-2,limited permeability
same,cytotoxicity to U2OS cells (in words),U2OS cells,"None of the compounds tested (NS1, 21, 23, 24, 25) were toxic"
same,"isothermal dose response CETSA, stabilization of NNMT (in words)",NNMT [2],dose-dependent manner
"Nc1ncnc2c1ncn2[C@@H]1O[C@H](CCCC[C@H](N)C(=O)O)[C@@H](O)[C@H]1O [compound 11, (S)-2-amino-6-((2R,3S,4R,5R)-5-(6-amino-9H-purin-9-yl)-3,4-dihydroxytetrahydrofuran-2-yl)hexanoic acid]",NNMT inhibition (in words),NNMT [3],poor NNMT inhibitor
"C#C[C@@H](CC[C@H](N)C(=O)O)C[C@H]1O[C@@H](n2cnc3c(N)ncnc32)[C@H](O)[C@@H]1O [compound 12, (2S,5S)-2-amino-5-(((2R,3S,4R,5R)-5-(6-amino-9H-purin-9-yl)-3,4-dihydroxytetrahydrofuran-2-yl)methyl)hept-6-ynoic acid]",NNMT inhibition (in words),NNMT [3],equally poor NNMT inhibitors
"Nc1ncnc2c1ncn2[C@@H]1O[C@H](C[C@@H](C#Cc2ccccc2)CC[C@H](N)C(=O)O)[C@@H](O)[C@H]1O [compound 13, (2S,5S)-2-amino-5-(((2R,3S,4R,5R)-5-(6-amino-9H-purin-9-yl)-3,4-dihydroxytetrahydrofuran-2-yl)methyl)-7-phenylhept-6-ynoic acid]",NNMT inhibition (in words),NNMT [3],equally poor NNMT inhibitors
"NC(=O)c1cccc(CC[C@@H](CC[C@H](N)C(=O)O)C[C@H]2O[C@@H](n3cnc4c(N)ncnc43)[C@H](O)[C@@H]2O)c1 [compound 15, (2S,5S)-2-amino-5-(((2R,3S,4R,5R)-5-(6-amino-9H-purin-9-yl)-3,4-dihydroxytetrahydrofuran-2-yl)methyl)-7-(3-carbamoylphenyl)heptanoic acid]",fold more potent than MS2756 in terms of Ki,NNMT [3]; relative to MS2756,approximately 200 fold
same,fold weaker inhibitor than NS1 in terms of Ki,NNMT [3]; relative to NS1,~10 fold
"NC(=O)c1cccc(CC[C@H](CC[C@H](N)C(=O)O)C[C@H]2O[C@@H](n3cnc4c(N)ncnc43)[C@H](O)[C@@H]2O)c1 [compound 16, (2S,5R)-2-amino-5-(((2R,3S,4R,5R)-5-(6-amino-9H-purin-9-yl)-3,4-dihydroxytetrahydrofuran-2-yl)methyl)-7-(3-carbamoylphenyl)heptanoic acid]",fold difference in Ki between NS1-alkane and its C6’ epimer,NNMT [3]; relative to NS1-alkane (15),~ 20 fold
"NC(=O)c1cccc(C#CCC[C@H]2O[C@@H](n3cnc4c(N)ncnc43)[C@H](O)[C@@H]2O)c1 [compound 17, 3-(4-((2R,3S,4R,5R)-5-(6-amino-9H-purin-9-yl)-3,4-dihydroxytetrahydrofuran-2-yl)but-1-yn-1-yl)benzamide]",fold weaker inhibitor than NS1 in terms of Ki,NNMT [3]; relative to NS1,~ 500 fold
"NC(=O)c1cccc(C#C[C@@H]2C[C@H]2[C@H]2O[C@@H](n3cnc4c(N)ncnc43)[C@H](O)[C@@H]2O)c1 [compound 18, 3-(((1R,2R)-2-((2R,3S,4R,5R)-5-(6-amino-9H-purin-9-yl)-3,4-dihydroxytetrahydrofuran-2-yl)cyclopropyl)ethynyl)benzamide]",NNMT inhibition (in words),NNMT [3],proved detrimental
"CO[C@@H]1O[C@H](C[C@@H](C#Cc2cccc(C(N)=O)c2)CC[C@H](N)C(=O)O)[C@@H](O)[C@H]1O [compound 19, (2S,5S)-2-amino-7-(3-carbamoylphenyl)-5-(((2R,3S,4R,5R)-3,4-dihydroxy-5-methoxytetrahydrofuran-2-yl)methyl)hept-6-ynoic acid]",NNMT inhibition (in words),NNMT [3],completely abrogated NNMT inhibition
"NC(=O)c1cccc(C#C[C@@H](CCCC(=O)O)C[C@H]2O[C@@H](n3cnc4c(N)ncnc43)[C@H](O)[C@@H]2O)c1 [compound 20, (S)-5-(((2R,3S,4R,5R)-5-(6-amino-9H-purin-9-yl)-3,4-dihydroxytetrahydrofuran-2-yl)methyl)-7-(3-carbamoylphenyl)hept-6-ynoic acid]",NNMT inhibition (in words),NNMT [3],poor NNMT inhibitor
"NCCC[C@H](C#Cc1cccc(C(N)=O)c1)C[C@H]1O[C@@H](n2cnc3c(N)ncnc32)[C@H](O)[C@@H]1O [compound 21, 3-((S)-6-amino-3-(((2R,3S,4R,5R)-5-(6-amino-9H-purin-9-yl)-3,4-dihydroxytetrahydrofuran-2-yl)methyl)hex-1-yn-1-yl)benzamide]",ability to decrease MNAM levels in U2OS cells (in words),[1],the effects were modest
same,cytotoxicity to U2OS cells (in words),U2OS cells,"None of the compounds tested (NS1, 21, 23, 24, 25) were toxic"
"COC(=O)[C@@H](N)CC[C@H](C#Cc1cccc(C(N)=O)c1)C[C@H]1O[C@@H](n2cnc3c(N)ncnc32)[C@H](O)[C@@H]1O [compound 23, Methyl (2S,5S)-2-amino-5-(((2R,3S,4R,5R)-5-(6-amino-9H-purin-9-yl)-3,4-dihydroxytetrahydrofuran-2-yl)methyl)-7-(3-carbamoylphenyl)hept-6-ynoate]",ability to decrease MNAM levels in U2OS cells (in words),[1],the effects were modest
same,cytotoxicity to U2OS cells (in words),U2OS cells,"None of the compounds tested (NS1, 21, 23, 24, 25) were toxic"
"NC(=O)c1cccc(C#C[C@@H](CC[C@H](N)C(N)=O)C[C@H]2O[C@@H](n3cnc4c(N)ncnc43)[C@H](O)[C@@H]2O)c1 [compound 24, 3-((3S,6S)-6,7-diamino-3-(((2R,3S,4R,5R)-5-(6-amino-9H-purin-9-yl)-3,4-dihydroxytetrahydrofuran-2-yl)methyl)-7-oxohept-1-yn-1-yl)benzamide]",ability to decrease MNAM levels in U2OS cells (in words),[1],the effects were modest
same,cytotoxicity to U2OS cells (in words),U2OS cells,"None of the compounds tested (NS1, 21, 23, 24, 25) were toxic"
"NC(=O)NCC[C@H](C#Cc1cccc(C(N)=O)c1)C[C@H]1O[C@@H](n2cnc3c(N)ncnc32)[C@H](O)[C@@H]1O [compound 25, 3-((S)-3-(((2R,3S,4R,5R)-5-(6-amino-9H-purin-9-yl)-3,4-dihydroxytetrahydrofuran-2-yl)methyl)-5-ureidopent-1-yn-1-yl)benzamide]",ability to decrease MNAM levels in U2OS cells (in words),[1],the effects were modest
same,cytotoxicity to U2OS cells (in words),U2OS cells,"None of the compounds tested (NS1, 21, 23, 24, 25) were toxic"
same,"isothermal dose response CETSA, stabilization of NNMT (in words)",NNMT [2],dose-dependent manner
"NC(=O)c1cccc(C#C[C@@H](CCC[C@H](N)C(=O)O)C[C@H]2O[C@@H](n3cnc4c(N)ncnc43)[C@H](O)[C@@H]2O)c1 [compound 26, (2S,6S)-2-amino-6-(((2R,3S,4R,5R)-5-(6-amino-9H-purin-9-yl)-3,4-dihydroxytetrahydrofuran-2-yl)methyl)-8-(3-carbamoylphenyl)oct-7-ynoic acid]",fold increase in inhibitory activity in terms of Ki compared to NS1,NNMT [3]; relative to NS1,~ 2 fold
"NC(=O)c1ccc(C#C[C@@H](CC[C@H](N)C(=O)O)C[C@H]2O[C@@H](n3cnc4c(N)ncnc43)[C@H](O)[C@@H]2O)cc1 [compound 27, (2S,5S)-2-amino-5-(((2R,3S,4R,5R)-5-(6-amino-9H-purin-9-yl)-3,4-dihydroxytetrahydrofuran-2-yl)methyl)-7-(4-carbamoylphenyl)hept-6-ynoic acid]",NNMT inhibition (in words),NNMT [3],much less potent than NS1
"NC(=O)c1ccccc1C#C[C@@H](CC[C@H](N)C(=O)O)C[C@H]1O[C@@H](n2cnc3c(N)ncnc32)[C@H](O)[C@@H]1O [compound 28, (2S,5S)-2-amino-5-(((2R,3S,4R,5R)-5-(6-amino-9H-purin-9-yl)-3,4-dihydroxytetrahydrofuran-2-yl)methyl)-7-(2-carbamoylphenyl)hept-6-ynoic acid]",NNMT inhibition (in words),NNMT [3],much less potent than NS1
"Nc1ncnc2c1ncn2[C@@H]1O[C@H](C[C@@H](C#Cc2cccc(S(N)(=O)=O)c2)CC[C@H](N)C(=O)O)[C@@H](O)[C@H]1O [compound 29, (2S,5S)-2-amino-5-(((2R,3S,4R,5R)-5-(6-amino-9H-purin-9-yl)-3,4-dihydroxytetrahydrofuran-2-yl)methyl)-7-(3-sulfamoylphenyl)hept-6-ynoic acid]",NNMT inhibition (in words),NNMT [3],much less potent than NS1
"Nc1ncnc2c1ncn2[C@@H]1O[C@H](C[C@@H](C#Cc2ccc3c(c2)C(=O)NCC3)CC[C@H](N)C(=O)O)[C@@H](O)[C@H]1O [compound 34, (2S,5S)-2-amino-5-(((2R,3S,4R,5R)-5-(6-amino-9H-purin-9-yl)-3,4-dihydroxytetrahydrofuran-2-yl)methyl)-7-(1-oxo-1,2,3,4-tetrahydroisoquinolin-7-yl)hept-6-ynoic acid]",NNMT inhibition (in words),NNMT [3],moderate NNMT inhibitors
"Nc1ncnc2c1ncn2[C@@H]1O[C@H](C[C@@H](C#Cc2ccc3c(c2)C(=O)NC3)CC[C@H](N)C(=O)O)[C@@H](O)[C@H]1O [compound 35, (2S,5S)-2-amino-5-(((2R,3S,4R,5R)-5-(6-amino-9H-purin-9-yl)-3,4-dihydroxytetrahydrofuran-2-yl)methyl)-7-(3-oxoisoindolin-5-yl)hept-6-ynoic acid]",NNMT inhibition (in words),NNMT [3],moderate NNMT inhibitors
